Experimental data published in PMC11855827, “High-Throughput Screening of Five Compound Libraries for Anthelmintic Activity and Toxicity Leads to the Discovery of Two Flavonoid Compounds” (International Journal of Molecular Sciences, 2025).
Where “and” joins values, the source holds several entries; their conditions need not be identical. Equal values may be shown once. Read-outs that look alike come from different tables or passages of the source.

System: C. elegans
[1] = Table S2, C. elegans SS assay, 110 μM, 0 h, averages of 4 data points
[2] = Table S2, C. elegans SS assay, 110 μM, 24 h, averages of 4 data points

| Compound | Percentage of motility inhibition 0 h [1] | Percentage of motility inhibition 24 h [2] | Percentage of motility inhibition 0 h (110 µM) [%] | Percentage of motility inhibition 24 h (110 µM) [%] |
| --- | --- | --- | --- | --- |
| CC(=O)O[C@H]1Cc2cc3c(cc2[C@H]2N(C)Cc4c(ccc5c4OCO5)[C@@]12C)OCO3 [Acetylcorynoline] | 34% | 11% |  |  |
| O=c1cccc2n1C[C@H]1C[C@@H]2CN2CCCC[C@@H]12 [Thermopsine] | 0% | 2% |  |  |
| C=C[C@H]1[C@H](O[C@@H]2O[C@H](CO)[C@@H](O)[C@H](O)[C@H]2O)OC=C(C(=O)OC)[C@H]1C[C@@H]1c2cc(O)c(O)cc2CCN1C(C)=O [Ipecoside] | 0% | 14% |  |  |
| 4'‐O‐Methylbavachalcone | 19% | 3% |  |  |
| CO/N=C(\C(=O)N[C@@H]1C(=O)N2C(C(=O)O)=C(Cn3ccc(=N)n3CCO)CS[C@H]12)c1csc(N)n1.O=S(=O)(O)O [Cefoselis (sulfate)] | 8% | 0% |  |  |
| NC(=O)c1ccc[n+]([O-])c1 [Nicotinamide N‐oxide] |  |  | 14 | 32 |
| C[C@@H]1CC[C@]2(C(=O)O[C@@H]3O[C@H](CO)[C@@H](O)[C@H](O)[C@H]3O)CC[C@]3(C)C(=CC[C@@H]4[C@@]5(C)C[C@@H](O)[C@H](O)[C@@](C)(CO)[C@@H]5CC[C@]43C)[C@@H]2[C@]1(C)O [Niga-ichigoside F1] | 0% | 1% |  |  |
| C=C(C)[C@@H]1CC=C(CO)CC1 [(S)-(−)-Perillyl alcohol] | 36% | 35% |  |  |
| Bavachinin | 0% | 2% |  |  |
| COc1cc(NC(C)CCCN)c2ncccc2c1.O=P(O)(O)O.O=P(O)(O)O (stereo not drawn) [Primaquine (Diphosphate)] | 37% | 0% |  |  |
| Corylin | 25% | 15% |  |  |
| COC(=O)c1ccc(O)cn1 [Methyl 5‐hydroxypyridine‐2‐carboxylate] | 7% | 1% |  |  |
| CCC1=C[C@@H]2CN3CCc4c([nH]c5ccccc45)[C@@](C(=O)OC)(C2)[C@@H]13 [Catharanthine] | 0% | 0% |  |  |
| Cn1nnnc1SCC1=C(C(=O)[O-])N2C(=O)[C@@H](NC(=O)[C@H](OC=O)c3ccccc3)[C@H]2SC1.[Na+] [Cefamandole (nafate)] | 0% | 0% |  |  |
| Gypsogenin-3-O-glucuronide | 50% | 10% |  |  |
| CCCNC[C@]1(O)[C@H](C)O[C@@H](O[C@H]2[C@H](C)[C@@H](O[C@@H]3O[C@H](C)C[C@H](N(C)C)[C@H]3O)[C@](C)(O)C[C@@H](C)CN[C@H](C)[C@@H](O)[C@](C)(O)[C@@H](CC)OC(=O)[C@@H]2C)C[C@@]1(C)OC [Tulathromycin A] | 20% | 9% |  |  |
| Cc1ncc([N+](=O)[O-])n1CC(O)CCl (stereo not drawn) [Ornidazole (Levo‐)] | 27% | 23% |  |  |
| CC1(C)CC[C@]2(C)CC[C@]3(C)C(=CC[C@@H]4[C@@]5(C)CC[C@@H](O)[C@](C)(C(=O)O)[C@@H]5CC[C@]43C)[C@@H]2C1 [alpha-Boswellic acid] | 34% | 28% |  |  |
| C[C@@H]1O[C@@H](O[C@H]2[C@H](O[C@H]3[C@H](O[C@H]4CC[C@]5(C)[C@H]6CC=C7[C@@H]8CC(C)(C)CC[C@]8(C(=O)O)CC[C@@]7(C)[C@]6(C)CC[C@H]5C4(C)C)OC[C@H](O)[C@@H]3O)O[C@H](CO)[C@@H](O)[C@@H]2O)[C@H](O)[C@H](O)[C@H]1O [Raddeanin A] | 4% | 6% |  |  |
| Oc1cc(O)c2c(c1)OC1(c3ccc(O)c(O)c3)Oc3cc(O)c4c(c3C2C1O)OC(c1ccc(O)c(O)c1)C(O)C4 (stereo not drawn) [Procyanidin A1] | 23% | 12% |  |  |
| CC(=O)O[C@H]1C[C@@]2(C)[C@@H](C[C@@H](O)[C@H]3[C@@]4(C)CC[C@@H](O)[C@@H](C)[C@@H]4CC[C@@]32C)/C1=C(\CCC=C(C)C)C(=O)[O-].[Na+] [Fusidic acid (sodium salt)] |  | 35% and 44% |  |  |
| C=C1CC[C@@H]2[C@](C)(CO)[C@H](O)CC[C@@]2(C)[C@@H]1/C=C/C1=CCOC1=O [Dehydroandrographolide] | 0% and 4% | 7% and 9% |  |  |
| CC1(C)S[C@@H]2[C@H](NC(=O)[C@H](N)c3ccc(O)cc3)C(=O)N2[C@H]1C(=O)O.O.O.O [Amoxicillin (trihydrate)] | 27% | 0% |  |  |
| COC(=O)[C@H]1[C@H]2C[C@H]3c4[nH]c5ccccc5c4CCN3C[C@H]2CC[C@@H]1O.Cl [Rauwolscine (hydrochloride)] | 7% | 0% |  |  |

| Compound | Percentage of motility inhibition 0 h [1] | Percentage of motility inhibition 24 h [2] | Percentage of motility inhibition 0 h (110 µM) [%] | Percentage of motility inhibition 24 h (110 µM) [%] |
| --- | --- | --- | --- | --- |
| N.N.N.O=C(O)CC(O)(CC(=O)O)C(=O)O [Citric acid (triammonium)] | 8% | 0% |  |  |
| O=C([O-])c1cc(/N=N/c2ccc(O)c(C(=O)[O-])c2)ccc1O.[Na+].[Na+] [Olsalazine (Disodium)] | 6% | 12% |  |  |
| CC(=O)O[C@H](CC(=O)O)C[N+](C)(C)C.[Cl-] [Acetyl‐L‐carni tine (hydrochloride)] | 12% | 0% |  |  |
| NC(N)=O [Urea] | 10% | 13% |  |  |
| COc1cc2c3c(c1O)-c1ccccc1C[C@@H]3N(C)CC2 [Lirinidine] | 0% | 6% |  |  |
| CN[C@@H]1[C@H](O[C@H]2[C@H](O[C@H]3[C@H](O)[C@@H](O)[C@H](N=C(N)N)[C@@H](O)[C@@H]3N=C(N)N)O[C@@H](C)[C@]2(O)C=O)O[C@@H](CO)[C@H](O)[C@H]1O.CN[C@@H]1[C@H](O[C@H]2[C@H](O[C@H]3[C@H](O)[C@@H](O)[C@H](N=C(N)N)[C@@H](O)[C@@H]3N=C(N)N)O[C@@H](C)[C@]2(O)C=O)O[C@@H](CO)[C@H](O)[C@H]1O.O=S(=O)(O)O.O=S(=O)(O)O.O=S(=O)(O)O [Streptomycin (sulfate)] | 31% | 26% |  |  |
| CC(=O)CC[C@@H]1[C@H]2CC(=C(C)C)C(=O)C[C@@]12C [Curcumenone] | 3% | 0% |  |  |
| Colistin (sulfate) | 14% | 0% |  |  |
| CCCC(C(=O)O)c1c(C)nc2ccc(Cl)cc2c1-c1ccccc1 (stereo not drawn) [HIV‐1 integrase inhibitor 2] | 14% | 13% |  |  |
| CC(=O)OC/C1=C/C[C@H]2[C@@H](/C=C(\C)C(=O)[C@@]3(OC(C)=O)C[C@H](C)[C@H](OC(=O)c4ccccc4)[C@@H]3[C@H]1OC(C)=O)C2(C)C [Euphorbia factor L7b] | 14% | 37% |  |  |
| Neoline | 21% | 1% |  |  |
| CC1=CC(=O)C2(C(C)C)CC12 (stereo not drawn) [Umbellulone] | 0% | 1% |  |  |
| O=C(O)[C@@H]1C[C@@H](O)CN1 | 11% | 0% |  |  |
| C[C@@H]1O[C@@H](O[C@@H]2[C@@H](O)[C@H](O[C@H]3CC[C@]4(C)[C@H]5CC=C6[C@@H]7CC(C)(C)CC[C@]7(C(=O)O[C@@H]7O[C@H](CO)[C@@H](O)[C@H](O)[C@H]7O)CC[C@@]6(C)[C@]5(C)CC[C@H]4C3(C)C)O[C@H](C(=O)O)[C@H]2O)[C@H](O)[C@H](O)[C@H]1O | 6% | 0% |  |  |
| COc1ccc(-c2cc(=O)c3c(O)cc(O)c(-c4cc(-c5cc(=O)c6c(O)cc(OC)cc6o5)ccc4OC)c3o2)cc1 [Sciadopitysin] | 0% | 21% |  |  |
| Cl.Cl.Cn1cncc1CCN [3‐Methylhistamine (dihydrochloride)] | 4% | 0% |  |  |
| COc1cc2c3c(c1OC)-c1ccccc1C[C@H]3[N+](C)(C)CC2 [N‐Methylnuciferine] | 0% | 0% |  |  |
| Cl.OC(c1cc(C(F)(F)F)nc2c(C(F)(F)F)cccc12)C1CCCCN1 (stereo not drawn) [Mefloquine (hydrochloride)] | 45% | 22% |  |  |
| C[C@H](CCC(=O)[O-])[C@H]1CC[C@H]2[C@@H]3[C@H](O)C[C@@H]4C[C@H](O)CC[C@]4(C)[C@H]3C[C@H](O)[C@]12C.[Na+] [Cholic acid (sodium)] | 0% | 5% |  |  |
| C=C1CC[C@H]2O[C@]2(C)CC[C@@H]2[C@@H]1CC2(C)C [Caryophyllene oxide] | 13% | 13% |  |  |
| CC(C)=CC/C=C(\C)[C@H]1CC[C@]2(C)[C@@H]1[C@H](O)C[C@@H]1[C@@]3(C)C[C@@H](O)[C@H](O[C@@H]4O[C@H](CO)[C@@H](O)[C@H](O)[C@H]4O[C@@H]4O[C@H](CO)[C@@H](O)[C@H](O)[C@H]4O)C(C)(C)[C@@H]3CC[C@]12C [Damulin A] | 5% | 0% |  |  |
| C[C@H](CCC(=O)NCC(=O)[O-])[C@H]1CC[C@H]2[C@@H]3[C@H](O)C[C@@H]4C[C@H](O)CC[C@]4(C)[C@H]3C[C@H](O)[C@]12C.[Na+] [Glycocholic acid (sodium)] | 0% | 0% |  |  |
| COc1ccc(-c2cc(=O)c3c(O)c(OC)c(OC)c(OC)c3o2)cc1OC [5‐O‐Demethylnobiletin] | 26% | 29% |  |  |
